Activity calls are given as the source filed them. No cut-off for these calls is given here.
Assays:
[1] = target: T1, Muscarinic acetylcholine receptor M5 (Homo sapiens) (UniProt P08912); assay: Positive allosteric modulation of muscarinic M5 receptor expressed in CHO cells assessed as potentiation of acetylcholine-induced intracellular calcium mobilization at 10 uM after 1 hr by FLIPR assay; type: functional, cell-based
T1 sequence (whole entry): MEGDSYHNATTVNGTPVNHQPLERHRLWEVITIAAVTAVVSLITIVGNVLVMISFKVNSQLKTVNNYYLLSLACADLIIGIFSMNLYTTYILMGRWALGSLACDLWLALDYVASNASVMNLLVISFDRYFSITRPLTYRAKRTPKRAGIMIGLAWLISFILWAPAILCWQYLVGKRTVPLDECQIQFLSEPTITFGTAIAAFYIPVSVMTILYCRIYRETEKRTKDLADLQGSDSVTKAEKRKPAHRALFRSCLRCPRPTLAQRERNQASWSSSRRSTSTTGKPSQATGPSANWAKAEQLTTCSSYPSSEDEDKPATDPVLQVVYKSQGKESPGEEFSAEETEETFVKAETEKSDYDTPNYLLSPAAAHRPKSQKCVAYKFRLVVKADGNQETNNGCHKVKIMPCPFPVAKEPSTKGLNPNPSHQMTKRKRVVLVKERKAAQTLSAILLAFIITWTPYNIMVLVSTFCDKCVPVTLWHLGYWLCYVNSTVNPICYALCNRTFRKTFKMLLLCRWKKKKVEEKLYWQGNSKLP

[2] = target: T2, Muscarinic acetylcholine receptor M5 (Homo sapiens, UniProt P08912); assay: Positive allosteric modulation of muscarinic M5 receptor expressed in CHO cells assessed as effect on acetylcholine-induced intracellular calcium mobilization after 1 hr by FLIPR assay; type: functional, cell-based
T2 sequence (P08912 whole entry): T1 sequence (whole entry)

[3] = target: T1, Muscarinic acetylcholine receptor M5 (Homo sapiens); assay: Positive allosteric modulation of muscarinic M5 receptor expressed in CHO cells assessed as potentiation of acetylcholine-induced intracellular calcium mobilization at 30 uM after 1 hr by FLIPR assay relative to acetylcholine; type: functional, cell-based
[4] = target: T1, Muscarinic acetylcholine receptor M5 (Homo sapiens); assay: Positive allosteric modulation of muscarinic M5 receptor expressed in CHO cells assessed as effect on acetylcholine-induced intracellular calcium mobilization after 1 hr by FLIPR assay relative to acetylcholine; type: functional, cell-based
[5] = Partition coefficient, log P of the compound; type: physicochemical; conditions: octanol/water

O=C1C(=O)N(Cc2ccc(-c3ccccc3)cc2)c2ccc(OCc3cccc(OC(F)(F)F)c3)cc21
Activity [1]: inactive

O=C1C(=O)N(Cc2ccc(-c3ccccc3)cc2)c2ccc(OCCc3ccccc3F)cc21
Activity [1]: inactive

O=C(O)COc1ccc2c(c1)C(=O)C(=O)N2Cc1ccc(-c2ccccc2)cc1
Activity [1]: inactive

CC1CCCN(COc2ccc3c(c2)C(=O)C(=O)N3Cc2ccc(-c3ccccc3)cc2)C1 (stereo unspecified)
Activity [1]: inactive

O=C1C(=O)N(Cc2ccc(-c3ccccc3)cc2)c2ccc(Oc3ccccn3)cc21
Activity [1]: inactive

Cc1ccccc1CCOc1ccc2c(c1)C(=O)C(=O)N2Cc1ccc(-c2ccccc2)cc1
Activity [1]: inactive

O=C1C(=O)N(Cc2ccc(-c3ccncc3)cn2)c2ccc(OC(F)(F)F)cc21
EC50 [2]: > 30 µM

O=C1C(=O)N(Cc2ccc(Oc3ccccc3)cc2)c2ccc(OC(F)(F)F)cc21
fold change (FC) [3]: 5

COc1ccccc1COc1ccc2c(c1)C(=O)C(=O)N2Cc1ccc(-c2ccccc2)cc1
Activity [1]: inactive

COc1ccc(COc2ccc3c(c2)C(=O)C(=O)N3Cc2ccc(-c3ccccc3)cc2)cc1C(F)(F)F
Activity [1]: inactive

O=C1C(=O)N(Cc2ccc(-c3ccccc3)cc2)c2ccc(OCc3cccc(C(F)(F)F)c3)cc21
Activity [1]: inactive

O=C1C(=O)N(Cc2ccc(Cl)nc2)c2ccc(OC(F)(F)F)cc21
EC50 [2]: 2.4 µM
Emax [4]: 80%

O=C1C(=O)N(Cc2ccc(-c3ccccc3)cc2)c2ccc(OCCN3CCCC3)cc21
Activity [1]: inactive

O=C1C(=O)N(Cc2ccc(-c3ccccc3)cc2)c2ccc(OCCc3ccccc3Cl)cc21
Activity [1]: inactive

O=C1C(=O)N(Cc2ccc(-c3ccccc3)cc2)c2ccc(OCC3CCCCC3)cc21
Activity [1]: inactive

O=C1C(=O)N(Cc2ccc(-c3ccccc3)cc2)c2ccc(OCc3cccc(F)c3)cc21
Activity [1]: inactive

O=C1C(=O)N(Cc2ccc(-c3ccccc3)cc2)c2ccc(OCc3ccccn3)cc21
Activity [1]: inactive

O=C1C(=O)N(Cc2ccc(-c3ccccc3)cc2)c2ccc(OCc3ccccc3F)cc21
Activity [1]: inactive

O=C1C(=O)N(Cc2ccc(-c3cncnc3)cc2)c2ccc(OC(F)(F)F)cc21
EC50 [2]: 2.1 µM
Emax [4]: 53%

O=C1C(=O)N(Cc2ccc(-c3ccccc3)cc2)c2ccc(OCc3ccncc3)cc21
Activity [1]: inactive

CN(C)CCOc1ccc2c(c1)C(=O)C(=O)N2Cc1ccc(-c2ccccc2)cc1
Activity [1]: inactive

O=C1C(=O)N(Cc2cccc(-c3ccccc3)c2)c2ccc(OC(F)(F)F)cc21
EC50 [2]: > 30 µM

O=C1C(=O)N(Cc2ccc(-c3ccccc3)cc2)c2ccc(Oc3ncccn3)cc21
Activity [1]: inactive

O=C1C(=O)N(Cc2ccc(-c3ccccc3)cc2)c2ccc(OCC3CCC3)cc21
Activity [1]: inactive

O=C1C(=O)N(Cc2ccc(-c3ccncc3)cc2)c2ccc(OC(F)(F)F)cc21
EC50 [2]: 2.8 µM
Emax [4]: 60%

O=C1C(=O)N(Cc2ccc(-c3ccccc3)cc2)c2ccc(OCc3ccccc3Cl)cc21
Activity [1]: inactive

O=C1C(=O)N(Cc2ccc(-c3ccccc3)cc2)c2ccc(OC(F)(F)F)cc21
logP [5]: 4.6
fold change (FC) [3]: 10

O=C1C(=O)N(Cc2c(F)cc(-c3ccccc3)cc2F)c2ccc(OC(F)(F)F)cc21
EC50 [2]: > 30 µM

O=C1C(=O)N(Cc2ccc(-c3ccccc3)cc2)c2ccc(OCc3ccc(OC(F)(F)F)cc3)cc21
Activity [1]: inactive

O=C1C(=O)N(Cc2ccc(-c3ccncc3)nc2)c2ccc(OC(F)(F)F)cc21
EC50 [2]: 4.4 µM
Emax [4]: 50%

O=C1C(=O)N(Cc2ccc(-c3cccnc3)nc2)c2ccc(OC(F)(F)F)cc21
EC50 [2]: 4 µM
logP [5]: 3
Emax [4]: 53%

O=C1C(=O)N(Cc2ccc(-c3ccccc3)cc2)c2ccc(OCc3cccnc3)cc21
Activity [1]: inactive

O=C1C(=O)N(Cc2ccc(-c3ccccc3)cc2)c2ccc(OCc3ccccc3C(F)(F)F)cc21
Activity [1]: inactive

COc1cccc(COc2ccc3c(c2)C(=O)C(=O)N3Cc2ccc(-c3ccccc3)cc2)c1
Activity [1]: inactive

O=C1C(=O)N(Cc2ccc(-c3ccccc3)cc2)c2ccc(OCC(F)(F)F)cc21
Activity [1]: inactive

CCOc1ccc2c(c1)C(=O)C(=O)N2Cc1ccc(-c2ccccc2)cc1
Activity [1]: inactive

COc1ccc(COc2ccc3c(c2)C(=O)C(=O)N3Cc2ccc(-c3ccccc3)cc2)cc1
Activity [1]: inactive

O=C1C(=O)N(Cc2ccc(-c3ccccc3)cc2)c2ccc(OCc3cccc(Cl)c3)cc21
Activity [1]: inactive

O=C1C(=O)N(Cc2ccc(Oc3ccccn3)cc2)c2ccc(OC(F)(F)F)cc21
EC50 [2]: 3.2 µM
Emax [4]: 46%

O=C1C(=O)N(Cc2ccc(-c3ccccc3)cc2)c2ccc(OCCN3CCOCC3)cc21
Activity [1]: inactive

O=C1C(=O)N(Cc2ccc(-c3ccccc3)cc2)c2ccc(OCCC(F)(F)F)cc21
Activity [1]: inactive

COc1cccc(Oc2ccc(CN3C(=O)C(=O)c4cc(OC(F)(F)F)ccc43)cc2)n1
EC50 [2]: 2.2 µM
Emax [4]: 51%

CCCCOc1ccc2c(c1)C(=O)C(=O)N2Cc1ccc(-c2ccccc2)cc1
Activity [1]: inactive

O=C1C(=O)N(Cc2ccc(-c3ccccc3)cc2)c2ccc(OCc3ccc(C(F)(F)F)cc3)cc21
Activity [1]: inactive

COc1ccc2c(c1)C(=O)C(=O)N2Cc1ccc(-c2ccccc2)cc1
Activity [1]: inactive

O=C1C(=O)N(Cc2ccc(-c3ccccc3)cc2)c2ccc(OCc3ccc(F)cc3F)cc21
Activity [1]: inactive

O=C1C(=O)N(Cc2ccc(-c3cccnc3)cc2)c2ccc(OC(F)(F)F)cc21
EC50 [2]: 1.6 µM
Emax [4]: 51%

Cc1ccccc1COc1ccc2c(c1)C(=O)C(=O)N2Cc1ccc(-c2ccccc2)cc1
Activity [1]: inactive

O=C1C(=O)N(Cc2ccc(-c3ccccc3)cc2)c2ccc(OCc3ccc(Cl)cc3)cc21
Activity [1]: inactive

CCCOc1ccc2c(c1)C(=O)C(=O)N2Cc1ccc(-c2ccccc2)cc1
Activity [1]: inactive

O=C1C(=O)N(Cc2ccc(-c3ccccc3)cc2)c2ccc(OCc3ccccc3)cc21
Activity [1]: inactive

O=C1C(=O)N(Cc2ccc(-c3ccccc3)cc2)c2ccc(OCc3ccc(F)cc3)cc21
Activity [1]: inactive

O=C1C(=O)N(Cc2ccc(-c3cccnc3)cn2)c2ccc(OC(F)(F)F)cc21
EC50 [2]: > 30 µM

O=C1C(=O)N(Cc2ccc(Oc3nccs3)cc2)c2ccc(OC(F)(F)F)cc21
EC50 [2]: 2.8 µM
Emax [4]: 58%

O=C1C(=O)N(Cc2ccc(-c3ccccc3)cc2)c2ccc(OCc3c(F)cccc3F)cc21
Activity [1]: inactive

O=C1C(=O)N(Cc2ccc(-c3ccccc3)cc2F)c2ccc(OC(F)(F)F)cc21
EC50 [2]: 5.9 µM
Emax [4]: 63%

O=C1C(=O)N(Cc2ccc(-c3ccccc3)cn2)c2ccc(OC(F)(F)F)cc21
EC50 [2]: 3.1 µM
Emax [4]: 47%

CC(C)COc1ccc2c(c1)C(=O)C(=O)N2Cc1ccc(-c2ccccc2)cc1
Activity [1]: inactive

O=C1C(=O)N(Cc2ccc(-c3ccccc3)cc2)c2ccc(OCCc3ccccc3C(F)(F)F)cc21
Activity [1]: inactive

O=C1C(=O)N(Cc2cccc(Oc3ccccc3)c2)c2ccc(OC(F)(F)F)cc21
EC50 [2]: > 30 µM

O=C1C(=O)N(Cc2ccc(-c3ccccc3)cc2)c2ccc(OCc3cc(F)ccc3F)cc21
Activity [1]: inactive

O=C1C(=O)N(Cc2ccc3c(c2)OCO3)c2ccc(OC(F)(F)F)cc21
EC50 [2]: 3.2 µM
Emax [4]: 90%

Reference: ChEMBL document CHEMBL1255557, “Heterobiaryl and heterobiaryl ether derived M5 positive allosteric modulators” (Bioorg Med Chem Lett, 2010)
